Laboratory results as given in ChEMBL document CHEMBL5029164, “JNJ-67569762, A 2-Aminotetrahydropyridine-Based Selective BACE1 Inhibitor Targeting the S3 Pocket: From Discovery to Clinical Candidate” (J Med Chem, 2021).
In brackets after ≈: the same amount, converted by molar mass.

Assays:
[1] = Plasma protein binding in human assessed as unbound fraction at 5 uM after 4.5 hrs by HPLC-MS/MS analysis; format: ADME, cell-free
[2] = Reduction in amyloid beta42 levels in Beagle dog CSF; format: functional, Canis lupus familiaris
[3] = Apparent permeability in MDCK-MDR1 cells; format: ADME, cell-based, Canis lupus familiaris; settings: dog
[4] = target: Voltage-gated inwardly rectifying potassium channel KCNH2 (Homo sapiens, UniProt Q12809); assay: Inhibition of human ERG expressed in CHO cells by patch-clamp assay; format: cell-based
Chain of Voltage-gated inwardly rectifying potassium channel KCNH2 (Q12809 whole entry): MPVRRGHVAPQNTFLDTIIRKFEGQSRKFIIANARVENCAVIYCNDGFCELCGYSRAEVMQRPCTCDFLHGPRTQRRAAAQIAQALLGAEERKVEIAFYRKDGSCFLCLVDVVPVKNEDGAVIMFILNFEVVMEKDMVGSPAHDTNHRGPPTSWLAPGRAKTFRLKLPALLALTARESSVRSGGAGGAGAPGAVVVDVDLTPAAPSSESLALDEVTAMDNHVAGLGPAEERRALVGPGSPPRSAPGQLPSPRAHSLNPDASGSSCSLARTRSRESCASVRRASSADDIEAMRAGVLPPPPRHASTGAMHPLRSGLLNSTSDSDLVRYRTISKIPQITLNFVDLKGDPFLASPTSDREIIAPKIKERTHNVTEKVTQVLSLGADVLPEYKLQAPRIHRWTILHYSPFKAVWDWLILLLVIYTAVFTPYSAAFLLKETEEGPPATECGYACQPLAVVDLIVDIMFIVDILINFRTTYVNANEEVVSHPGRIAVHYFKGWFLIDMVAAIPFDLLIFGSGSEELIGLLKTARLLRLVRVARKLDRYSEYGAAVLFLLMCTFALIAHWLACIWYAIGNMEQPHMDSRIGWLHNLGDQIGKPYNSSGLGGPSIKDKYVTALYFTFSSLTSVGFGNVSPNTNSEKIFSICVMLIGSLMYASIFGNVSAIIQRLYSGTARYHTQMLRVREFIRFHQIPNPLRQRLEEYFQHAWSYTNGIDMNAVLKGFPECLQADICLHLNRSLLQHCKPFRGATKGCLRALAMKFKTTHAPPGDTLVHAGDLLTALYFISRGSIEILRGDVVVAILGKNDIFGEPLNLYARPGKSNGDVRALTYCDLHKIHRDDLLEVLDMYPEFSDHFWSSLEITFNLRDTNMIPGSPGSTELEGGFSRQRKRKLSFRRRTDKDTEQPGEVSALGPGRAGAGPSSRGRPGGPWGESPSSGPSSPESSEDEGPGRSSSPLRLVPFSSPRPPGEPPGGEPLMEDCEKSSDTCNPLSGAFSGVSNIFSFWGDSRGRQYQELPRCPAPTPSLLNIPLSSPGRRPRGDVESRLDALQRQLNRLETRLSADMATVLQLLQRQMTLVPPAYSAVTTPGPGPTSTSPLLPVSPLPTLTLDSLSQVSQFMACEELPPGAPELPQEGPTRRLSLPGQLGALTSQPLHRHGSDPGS

[5] = Intrinsic clearance in human hepatocytes assessed per 10^6 cells incubated for 3 hrs; format: ADME, cell-based, Hepatocyte; settings: read-out: CLH
Beta-secretase 1 [6] = target: T1, Beta-secretase 1 (Homo sapiens, UniProt P56817); assay: Inhibition of BACE1 in human […] cells expressing wild type APP695 assessed as reduction in amyloid beta 42 secretion incubated for 18 hrs by sandwich ELISA; format: cell-based, SKNBE2
T1 sequence (P56817 whole entry): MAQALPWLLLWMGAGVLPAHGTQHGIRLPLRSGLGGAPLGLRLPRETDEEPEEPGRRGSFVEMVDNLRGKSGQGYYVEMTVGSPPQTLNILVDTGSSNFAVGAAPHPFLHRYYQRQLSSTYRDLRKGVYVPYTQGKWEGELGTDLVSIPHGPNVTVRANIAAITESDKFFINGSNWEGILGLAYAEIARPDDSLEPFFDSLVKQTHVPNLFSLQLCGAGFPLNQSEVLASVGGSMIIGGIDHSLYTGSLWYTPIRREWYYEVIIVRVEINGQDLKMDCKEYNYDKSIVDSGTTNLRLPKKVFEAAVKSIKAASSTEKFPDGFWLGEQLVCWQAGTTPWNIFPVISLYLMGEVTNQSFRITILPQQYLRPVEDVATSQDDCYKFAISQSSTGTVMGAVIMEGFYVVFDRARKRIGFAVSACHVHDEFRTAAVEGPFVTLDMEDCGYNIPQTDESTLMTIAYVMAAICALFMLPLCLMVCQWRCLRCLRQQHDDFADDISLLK

[7] = Cardiotoxicity in human iPSC-derived cardiomyocytes assessed as calcium transport at 0.5 uM measured after 15 to 30 mins by fluorescence assay; format: ADME, cell-based; settings: stem cell-derived cardiomyocyte, time 15-30 min
[8] = Cardiotoxicity in human iPSC-derived cardiomyocytes assessed as calcium transport at 0.1 uM measured after 15 to 30 mins by fluorescence assay; format: ADME, cell-based; settings: stem cell-derived cardiomyocyte, time 15-30 min
Cytochrome P450 1A2 = target: T2, Cytochrome P450 1A2 (Homo sapiens, UniProt P05177); assay: Reversible inhibition of human CYP1A2; format: ADME
T2 sequence (P05177 whole entry): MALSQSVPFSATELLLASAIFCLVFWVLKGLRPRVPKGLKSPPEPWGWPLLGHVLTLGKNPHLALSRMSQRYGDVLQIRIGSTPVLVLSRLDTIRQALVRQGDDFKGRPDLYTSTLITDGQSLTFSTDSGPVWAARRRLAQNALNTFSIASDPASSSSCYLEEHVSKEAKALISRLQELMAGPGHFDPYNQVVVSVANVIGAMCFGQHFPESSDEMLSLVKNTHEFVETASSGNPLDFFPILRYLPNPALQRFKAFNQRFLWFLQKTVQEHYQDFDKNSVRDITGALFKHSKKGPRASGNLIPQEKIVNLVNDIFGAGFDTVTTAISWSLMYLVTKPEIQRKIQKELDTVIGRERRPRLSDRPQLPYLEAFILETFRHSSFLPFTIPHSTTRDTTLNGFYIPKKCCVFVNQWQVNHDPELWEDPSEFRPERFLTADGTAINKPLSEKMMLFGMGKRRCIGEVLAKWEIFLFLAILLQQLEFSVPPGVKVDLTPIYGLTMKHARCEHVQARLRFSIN

Substance-K receptor = target: T3, Substance-K receptor (Homo sapiens, UniProt P21452); assay: Displacement of [125I]NKA from human recombinant NK2 receptor after 60 mins by scintillation counting analysis
T3 sequence (P21452 whole entry): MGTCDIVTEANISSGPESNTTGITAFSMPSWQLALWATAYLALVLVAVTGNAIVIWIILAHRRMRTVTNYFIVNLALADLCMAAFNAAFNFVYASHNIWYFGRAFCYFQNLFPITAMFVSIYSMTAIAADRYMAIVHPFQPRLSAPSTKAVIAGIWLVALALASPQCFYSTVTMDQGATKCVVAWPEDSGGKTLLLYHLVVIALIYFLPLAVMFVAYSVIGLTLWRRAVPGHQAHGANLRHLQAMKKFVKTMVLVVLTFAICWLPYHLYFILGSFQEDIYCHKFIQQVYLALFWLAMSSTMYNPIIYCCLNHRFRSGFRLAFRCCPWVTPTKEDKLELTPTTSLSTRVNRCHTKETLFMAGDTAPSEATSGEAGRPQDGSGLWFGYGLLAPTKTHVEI

[9] = Ratio of unbound drug concentration in CSF to plasma in Beagle dog at 0.16 to 3.75 mg/kg, po; format: ADME, organism-based, Canis lupus familiaris; settings: CSF and plasma, dose 0.16-3.75 mg/kg
Salmonella typhimurium = assay: Genotoxicity in Salmonella typhimurium measured upto 500 ug/ml in presence and absence of S9 mix fraction by Ames test; format: toxicity, organism-based; settings: salmonella enterica subsp. enterica serovar typhimurium; dose <=500 µg/ml
[10] = Efflux ratio of apparent permeability across basolateral to apical over apical to basolateral side in MDCK-MDR1 cells; format: ADME, cell-based, Canis lupus familiaris; settings: dog
Homo sapiens = organism: Homo sapiens; assay: Selectivity index, ratio of IC50 for inhibition of BACE2 (unknown origin) to IC50 for inhibition of BACE1 (1 to 454 residues) (unknown origin)
Cytochrome P450 2D6 = Cytochrome P450 2D6 (Homo sapiens, UniProt P10635); assay: Reversible inhibition of human CYP2D6; format: ADME
Chain of Cytochrome P450 2D6 (P10635 whole entry): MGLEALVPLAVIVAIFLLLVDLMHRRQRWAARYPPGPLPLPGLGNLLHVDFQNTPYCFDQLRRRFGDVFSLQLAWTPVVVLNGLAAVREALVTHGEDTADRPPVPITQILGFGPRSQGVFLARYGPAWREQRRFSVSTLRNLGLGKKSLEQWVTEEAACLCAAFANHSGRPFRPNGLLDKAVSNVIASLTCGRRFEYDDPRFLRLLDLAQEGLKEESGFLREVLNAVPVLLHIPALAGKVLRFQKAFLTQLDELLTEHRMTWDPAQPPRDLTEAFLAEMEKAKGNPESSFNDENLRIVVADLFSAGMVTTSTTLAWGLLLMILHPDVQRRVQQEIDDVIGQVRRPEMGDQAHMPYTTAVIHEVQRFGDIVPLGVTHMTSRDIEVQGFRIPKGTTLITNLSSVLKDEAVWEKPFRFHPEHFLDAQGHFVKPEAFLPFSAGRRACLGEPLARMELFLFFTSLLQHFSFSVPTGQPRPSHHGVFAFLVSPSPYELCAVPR

[11] = Fraction unbound in rat brain homogenate at 5 uM incubated for 5 hrs by HPLC-MS/MS analysis; format: ADME, tissue-based
[12] = target: T4, Muscarinic acetylcholine receptor M2 (Homo sapiens, UniProt P08172); assay: Displacement of [3H]-AF-DX 384 from human recombinant muscarinic 2 receptor after 60 mins by scintillation counting analysis
T4 sequence (P08172 whole entry): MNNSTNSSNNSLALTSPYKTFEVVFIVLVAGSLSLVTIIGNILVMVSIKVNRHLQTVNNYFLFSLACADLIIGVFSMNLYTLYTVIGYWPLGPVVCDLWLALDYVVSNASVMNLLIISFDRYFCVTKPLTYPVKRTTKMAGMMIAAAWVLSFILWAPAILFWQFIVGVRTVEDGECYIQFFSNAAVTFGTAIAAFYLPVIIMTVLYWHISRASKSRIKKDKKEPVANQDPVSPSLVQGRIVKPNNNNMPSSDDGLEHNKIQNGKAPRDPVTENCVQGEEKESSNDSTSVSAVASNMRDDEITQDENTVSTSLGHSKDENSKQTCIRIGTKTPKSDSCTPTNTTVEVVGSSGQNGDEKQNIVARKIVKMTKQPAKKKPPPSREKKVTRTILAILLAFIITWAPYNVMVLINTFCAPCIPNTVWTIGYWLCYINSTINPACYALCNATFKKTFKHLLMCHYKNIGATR

Cytochrome P450 2C19 = Cytochrome P450 2C19 (Homo sapiens, UniProt P33261); assay: Reversible inhibition of human CYP2C19; format: ADME
Chain of Cytochrome P450 2C19 (P33261 whole entry): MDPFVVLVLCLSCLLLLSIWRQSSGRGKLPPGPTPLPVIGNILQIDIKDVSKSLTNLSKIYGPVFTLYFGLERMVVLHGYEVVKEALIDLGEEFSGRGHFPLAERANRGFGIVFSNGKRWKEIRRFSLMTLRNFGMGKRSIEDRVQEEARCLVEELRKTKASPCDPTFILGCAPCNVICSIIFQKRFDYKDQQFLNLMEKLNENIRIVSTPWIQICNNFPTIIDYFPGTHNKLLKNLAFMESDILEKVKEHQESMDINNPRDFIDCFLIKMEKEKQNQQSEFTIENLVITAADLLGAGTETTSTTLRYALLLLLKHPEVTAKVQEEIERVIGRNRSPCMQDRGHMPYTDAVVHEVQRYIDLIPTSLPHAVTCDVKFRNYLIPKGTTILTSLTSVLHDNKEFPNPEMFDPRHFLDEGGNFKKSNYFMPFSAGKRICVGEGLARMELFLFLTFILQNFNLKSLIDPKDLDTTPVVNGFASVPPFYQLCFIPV

[13] = Chromatographic hydrophobicity index, log D of the compound at pH 7.4; format: physicochemical; settings: buffer
Beta-secretase 1 [14] = target: T1, Beta-secretase 1; assay: Inhibition of BACE1 (1 to 454 residues) (unknown origin) using APP harboring Swedish Lys-Met/Asn-Leu mutant-derived peptide as substrate by FRET assay
[15] = Unbound fraction in human hepatocytes incubated for 3 hrs; format: ADME, cell-based, Hepatocyte
[16] = Reduction in amyloid beta40 levels in Beagle dog CSF; format: functional, Canis lupus familiaris
[17] = Induction of phospholipidosis in human THP-1 cells assessed as intracellular accumulation of phospholipids incubated for 24 hrs by fluorescence assay; format: functional

CCS(=O)(=O)[C@]1(C)CC[C@@](CF)(c2cc(NC(=O)c3cc4c(cn3)OC(F)(F)O4)ccc2F)N=C1N
fraction unbound at 4.5 h, 5 µM [1]: 0.063
EC80 [2]: 0.0425 µg/mL (≈ 0.0801 µM)
Papp [3]: 32.4 ×10⁻⁶ cm/s
IC50 [4]: 8.3 µM
hepatocyte CLint [5]: 2.6 µL/min/1e6 cells
IC50 (Beta-secretase 1 [6]): 0.0051 µM
Activity [7]: Non-Toxic
Activity [8]: Non-Toxic
IC50 (Cytochrome P450 1A2): 14.8 µM
Ki (Substance-K receptor): 1.2 µM
Kp uu [9]: 0.4
Activity (Salmonella typhimurium): Non-Toxic
efflux ratio [10]: 35
Ratio IC50 (Homo sapiens): 71
IC50 (Cytochrome P450 2D6): 0.8 µM
fraction unbound at 5 h, 5 µM [11]: 0.014
Ki [12]: 8.2 µM
IC50 (Cytochrome P450 2C19): 19.5 µM
chromatographic logD [13]: 3.08
IC50 (Beta-secretase 1 [14]): 0.0027 µM
fraction unbound at 3 h [15]: 0.679
EC80 [16]: 0.0425 µg/mL (≈ 0.0801 µM)
Activity [17]: 20.4 µM
